Results on 6 compounds are retold here after patent US20180280485A1, “THIORETINAMIDE COMPOSITIONS FOR THE APOPTOSIS OF MALIGNANT CELLS WHILE PREVENTING THE APOPTOSIS OF NORMAL CELLS AND RELATED METHODS” (priority 2017, published 2018).

The subject of data set [1] is human adenocarcinoma cells. The experiment in a line: Growth of cultured human adenocarcinoma cells (Example 7). The data set is classed as cell-based. Particulars: for cell growth (10^5): cell number day 4, 10^5 cells passaged day 0, no addition 7.4 ± 2.7; for cell growth (10^5) / cell growth (% of control): TR2Co/TR 30 mg/dL, DATS/NBS 1.0 mg/dL; for cell growth (% of control): day 4; for inhibition of growth of cultured human adenocarcinoma cells: each compound alone, Table 2. The method, then:
Human adenocarcinoma cells were cultured in RPMI medium with added fetal bovine serum and antibiotics, as reported by McCully K S et al in Research Communications in Chemical Pathology and Pharmacology, 1992; 77: 125-128 and reviewed by Ariga T et al in Biofactors 2006; 26: 93-103. Equal numbers (10^5) of adenocarcinoma cells were trypsinized and passaged on day 0, and the cells were refed with media containing test compounds on days 1 and 3. Cell numbers were determined by trypsinization on day 4. Thioretinaco (TR2Co) and thioretinamide (TR) were synthesized, as previously described (McCully U.S. Pat. No. 4,618,685; McCully U.S. Pat. No. 4,925,931) and dissolved in absolute ethanol. Authentic diallyl trisulfide ([…]) and napabucasin (NBS) were solubilized in propylene glycol. Propylene glycol (PG) was added to the ethanol solutions of the test compounds, the ethanol was evaporated under reduced pressure at 37° C., and the resulting solutions in propylene glycol were added to the culture media.

Data set [2] concerns human colon carcinoma cells. Particulars: in vitro; read-out: inhibitory concentration (IC50) against proliferation; cited from earlier work.
The subject of another data set is Caenorhabtidis elegans. Particulars: exposure to diallyl trisulfide; cited from earlier work.
Data set [3] deals with Normal control cell lines. Particulars: versus human leukemia and myeloma cell lines; cited from earlier work.
The nature of data set [4]: Toxicity in animal tests or human trials. The data set is classed as in vivo. Particulars: 7.5 mg/70 kg/day to 300 mg/70 kg/day.
Data set [5] relates to human pancreatic adenocarcinoma cells. The settings on record: in vitro, cited from earlier work; for growth of cells: without cellular degeneration.
The next data set concerns normal fibroblasts. The settings on record: in vitro; cited from earlier work.

As to `C=CCSSSCC=C` [DATS, diallyl trisulfide, reference compound], in data set [1], the “cell growth (10^5)” value was 2.7 ± 0.57 10^5, the “cell growth (% of control)” value is 36 % of control and the “inhibition of growth of cultured human adenocarcinoma cells” value is given as “significantly inhibit growth”. For the same compound, the IC50 in data set [2] was 5 µM. Moreover, the increase of lifespan result with Caenorhabtidis elegans is “approximately 12%”.

For `Cc1cc2c(o1)C(=O)c1ccccc1C2=O` [FHQ3, 2-methyl-naphtho[2,3-b]furan-4,9 dione], the “increase in concentration required to produce apoptosis and growth inhibition in normal control cell lines” value in data set [3] is listed as 10 fold.

Take `O=C(O)Cc1cc2c(o1)C(=O)c1ccccc1C2=O` [NBS, 2-carboxymethyl-naphtho[2,3-b]furan-4,9-dione, reference compound]: in data set [1], the “cell growth (10^5)” value was 2.3 ± 0.52 10^5, the “cell growth (% of control)” value was 28 % of control and the “inhibition of growth of cultured human adenocarcinoma cells” value is on record as “significantly inhibit growth”.

Regarding `CC1=C(/C=C/C(C)=C/C=C/C(C)=C/C(=O)NC2CCSC2=O)C(C)(C)CCC1` (centres unmarked) [TR, N-homocysteine thiolactonyl retinamide], in data set [1], the “cell growth (10^5)” value is 1.4 ± 0.50 10^5, the “cell growth (% of control)” value is 19 % of control and the “inhibition of growth of cultured human adenocarcinoma cells” value is given as “significantly inhibit growth”. In addition, the “toxicity (weight loss, nausea, impairment of liver function, headache, skin lesions)” value in data set [4] is listed as “no evidence of toxicity”. Moreover, in data set [5], the “growth of cells” value is reported as “inhibited” and the “lactate production” value is “increased”. The “growth and lactate production” value in the data set with normal fibroblasts was “unaffected”.

For the compound `CC1=C(/C=C/C(C)=C/C=C/C(C)=C/CO)C(C)(C)CCC1` [retinol, reference compound], the “toxicity (weight loss, nausea, impairment of liver function, headache, skin lesions)” value in data set [4] is “no evidence of toxicity”.

In the case of “N-homocysteine thiolactonyl retinamido cobalamin [TR2Co]”, in data set [1], the “cell growth (10^5)” value is recorded as 2.5 ± 0.82 10^5, the “cell growth (% of control)” value was 33 % of control and the “inhibition of growth of cultured human adenocarcinoma cells” value is listed as “significantly inhibit growth”. Also, in data set [5], the “growth of cells” value was “inhibited” and the “lactate production” value is “increased”. Also, in the data set on normal fibroblasts, the “growth and lactate production” value is “unaffected”.
